Test results taken from patent publication US20220153732A1, “PROTEIN SECRETION INHIBITORS” (KEZAR LIFE SCIENCES, priority 2019, published 2022).
Read-outs that look alike come from different tables or passages of the source.

Experiments:
Format in all cases: cell-based
[1] = system: HER3-ss+4aa/Gaussia Luciferase; assay: Dox-Induced Her3-ss-Gluc Assay
Outline: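 Compounds, diluted in DMSO/media containing doxycycline, were incubated at 37° C., 5% CO2 with cells seeded one day earlier. The cells stably express HER3-ss+4aa/Gaussia luciferase under T-REx control. Where no stereochemistry is shown, data refer to the mixture of stereoisomers.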

[2] = system: human multiple myeloma cell line NCI-H929; assay: H929 Cell Viability Assay; conditions: 48 hr, NCI-H929 cells, Celltiter-Glo, read-out: 48 hr H929 Viability Celltiter-Glo: Mean EC50
Procedure: Plates were incubated at 37° C., 5% CO2 for 48 hours. After 48 hours, Celltiter-Glo® (Promega) was added to each well and luciferase signal was quantified using Tecan Infinite M1000 Pro for cell viability determination.
For chemical structures that include one or more stereoisomers, but are illustrated without indicating stereochemistry, the assay data refers to a mixture of stereoisomers.

[3] = system: PD1-ss+10aa/Gaussia Luciferase; assay: Dox-Induced PD1-ss-Gluc Assay
Outline: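 Compounds, diluted in DMSO/media with doxycycline, were added to cells plated a day earlier and kept at 37° C under 5% CO2. The cells stably express a Gaussia luciferase construct fused to PD1-ss+10aa, induced via the T-REx system. Unassigned stereochemistry means mixture data.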

[4] = system: IL-2-FL/Gaussia Luciferase; assay: Dox Induced IL2-FL-Gluc Assay
Outline: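 Compounds were added together with doxycycline in DMSO/media and incubated at 37° C., 5% CO2. The cells were a stably selected line carrying IL-2-FL/Gaussia luciferase under T-REx inducible control. Structures drawn without stereochemistry were tested as stereoisomer mixtures.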

[5] = system: TNFα-FL/Gaussia Luciferase; assay: Dox Induced TNFα-FL-Gluc Assay
Outline: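 Compounds were added in doxycycline-containing DMSO/media to cells plated the previous day and incubated at 37° C under 5% CO2. These cells stably express a TNFα-FL/Gaussia luciferase cDNA whose expression is under T-REx (Dox-inducible) control, selected with Hygromycin and Blasticidin.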

[6] = system: human multiple myeloma cell line U266B1; assay: U266 Cell Viability Assay; conditions: U-266, 48 hr, U266B1 cells, Celltiter-Glo, read-out: 48 hr U266 Viability Celltiter-Glo: Mean EC50
Outline: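 Viability measured by CellTiter-Glo luciferase signal after 48 h compound exposure (37 °C, 5% CO2) of U266B1 cells in 384-well format. Where stereochemistry is not shown, data refer to the stereoisomer mixture.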

[7] = 24 hr, doxycycline-induced, 293FRT/TO cells; read-out: 24 hr Dox Inducible Her3(ss + 4)Gluc 293FRT/TO: Mean IC50
[8] = 24 hr, doxycycline-induced, 293FRT/TO cells; read-out: 24 hr Dox Inducible PD1ssGluc 293FRT/TO: Mean IC50
[9] = 24 hr, doxycycline-induced, 293FRT/TO cells; read-out: 24 hr Dox Inducible IL2FLGIuc 293FRT/TO: Mean IC50
[10] = 24 hr, doxycycline-induced, 293FRT/TO cells; read-out: 24 hr Dox Inducible TNFaFLGluc 293FRT/TO: Mean IC50

Compound | IC50 ([1]; read-out: 24 hr Dox Inducible Her3(ss + 4)Gluc 293FRT/TO: Mean IC50; 24 hr, doxycycline-induced, 293FRT/TO cells) | EC50 [2] | IC50 ([3]; read-out: 24 hr Dox Inducible PD1ssGluc 293FRT/TO: Mean IC50; 24 hr, doxycycline-induced, 293FRT/TO cells) | IC50 ([4]; read-out: 24 hr Dox Inducible IL2FLGIuc 293FRT/TO: Mean IC50; 24 hr, doxycycline-induced, 293FRT/TO cells) | IC50 ([5]; read-out: 24 hr Dox Inducible TNFaFLGluc 293FRT/TO: Mean IC50; 24 hr, doxycycline-induced, 293FRT/TO cells) | EC50 [6] | IC50 [1, 7] | IC50 [3, 8] | IC50 [4, 9] | IC50 [5, 10]
CC(C)(C)[Si](O[C@H]1CCN(c2ccccc2)[C@@H]1c1csc(NC(=O)c2cccn2Cc2ccncc2)n1)(c1ccccc1)c1ccccc1 [Compound A353] | 0.012 µM | 0.303 µM | 0.005 µM | 0.011 µM | 0.013 µM | > 25 µM | – | – | – | –
O=C(Nc1nc([C@H]2C[C@@H](OC3CCCCC3)CN2c2ccccc2)cs1)c1cccn1Cc1ccncc1 [Compound A354] | – | 0.901 µM | – | – | – | > 25 µM | 0.016 µM | 0.006 µM | 0.021 µM | 0.054 µM
Cc1cccc(/C=C\c2csc(NC(=O)c3cccn3Cc3ccncc3)n2)n1 [Compound A355] | – | 22.3 µM | – | – | – | 17.2 µM | 3.81 µM | 0.524 µM | 11.3 µM | 9.74 µM
Cc1cccc(/C=C/c2csc(NC(=O)c3cccn3Cc3ccncc3)n2)n1 [Compound A356] | – | > 25 µM | – | – | – | 23.8 µM | 5.41 µM | 0.035 µM | > 25 µM | 14.4 µM
Cc1ccc(/C=C/c2csc(NC(=O)c3cccn3Cc3ccncc3)n2)nc1 [Compound A357] | – | 10.7 µM | – | – | – | 17.9 µM | 2.31 µM | 0.012 µM | 9.07 µM | 7.48 µM
O=C(Nc1nc(/C=C/c2ncc(F)cc2F)cs1)c1cccn1Cc1ccncc1 [Compound A358] | – | 17.9 µM | – | – | – | > 25 µM | 0.443 µM | 0.029 µM | 0.765 µM | 3.57 µM
O=C(Nc1nc([C@H]2CCCN2c2ccc3c(c2)OCO3)cs1)c1cccn1Cc1ccncc1 [Compound A359] | – | 0.382 µM | – | – | – | > 25 µM | 0.013 µM | 0.011 µM | 0.015 µM | 0.083 µM
O=C(Nc1ncc(Cl)s1)c1cccn1Cc1ccncc1 [Compound B1] | – | > 25 µM | – | – | – | > 25 µM | 4.32 µM | 1.89 µM | 6.29 µM | > 25 µM
C=Cc1csc(NC(=O)c2cccn2Cc2ccncc2)n1 [Compound B2] | – | > 25 µM | – | – | – | > 25 µM | 12.1 µM | 1.97 µM | 8.42 µM | > 25 µM
Cc1ccc(S(=O)(=O)CCOC(C)(C)c2csc(NC(=O)c3cccn3Cc3ccncc3)n2)cc1 [Compound B3, 1-(pyridin-4-ylmethyl)-N-(4-(2-(2-tosylethoxy)propan-2-yl)thiazol-2-yl)-1H-pyrrole-2-carboxamide] | – | > 25 µM | – | – | – | > 25 µM | 4.24 µM | 2.84 µM | 2.93 µM | > 25 µM
CC(C)(C)c1cc(NC(=O)c2cccn2Cc2ccncc2)no1 [Compound B4, N-(5-(tert-butyl)isoxazol-3-yl)-1-(pyridin-4-ylmethyl)-1H-pyrrole-2-carboxamide] | – | > 25 µM | – | – | – | > 25 µM | 11.2 µM | 3.02 µM | 22.5 µM | > 25 µM
CC(C)c1coc(NC(=O)c2cccn2Cc2ccncc2)n1 [Compound B5, N-(4-isopropyloxazol-2-yl)-1-(pyridin-4-ylmethyl)-1H-pyrrole-2-carboxamide] | – | > 25 µM | – | – | – | > 25 µM | 12.6 µM | 3.24 µM | 10.6 µM | > 25 µM
O=C(Nc1nccs1)c1cccn1Cc1ccncc1 [Compound B6] | – | > 25 µM | – | – | – | > 25 µM | > 25 µM | 6.66 µM | > 25 µM | > 25 µM
CCc1nc(NC(=O)c2cccn2Cc2ccccc2Cl)sc1C [Compound B7, 1-(2-chlorobenzyl)-N-(4-ethyl-5-methylthiazol-2-yl)-1H-pyrrole-2-carboxamide] | – | > 25 µM | – | – | – | > 25 µM | 20 µM | 9.07 µM | 24.3 µM | > 25 µM
Cc1cc(NC(=O)c2cccn2Cc2ccncc2)no1 [Compound B8, N-(5-methylisoxazol-3-yl)-1-(pyridin-4-ylmethyl)-1H-pyrrole-2-carboxamide] | – | > 25 µM | – | – | – | > 25 µM | > 25 µM | 9.1 µM | > 25 µM | > 25 µM
